# Paper PMC2789381, “Voltage-Dependent Modulation of Cardiac Ryanodine Receptors (RyR2) by Protamine” (PLoS ONE, 2009)
# Several values for one entry are separate records, joined by “and”; a condition that tells them apart may be missing. Equal values may be shown once.
# Biological target: T1, cardiac RyR2 (Sus scrofa, UniProt A0A5G2R1W3)
# T1 construct: from tissue; host or cells: pig heart ventricle (sarcoplasmic reticulum microsomes)
# Test: Single-channel recordings of RyR2 reconstituted into planar lipid bilayers
# Type: biochemical, pig
# Conditions: for dwell time of ryanodol-induced events: Vm = +20 mV, n = 7, mean±SEM; for dwell time of ryanodol-induced events / slope conductance of the induced substate (I-V curve): SEM; for substate current level as % of the current through the full open channel / substate current level as % of the full open current: 1 µg/ml protamine, 10 µM ryanodol or 50 nM IpTxA, 10 µM cytosolic Ca2+/5 mM caffeine; for substate current level as % of the full open current: Vm = +40 mV; for slope conductance of the induced substate (I-V curve): fully active RyR2 (10 µM Ca2+/5 mM caffeine), full open state 129±1 pS, n = 10 protamine, 13 ryanodol, 5 IpTxA, mean±SEM
# From the text: All procedures with animals were designed to minimize pain and suffering and conformed to the guidelines of the National Institutes of Health. The committee on the Use and Care of Laboratory Animals of Southern Illinois University School of Medicine reviewed and approved the protocols for animal use. Sarcoplasmic reticulum (SR) microsomes were obtained from pig heart ventricle using heart homogenization and ultracentrifugation steps that follow the procedures published by Chamberlain et al.. SR pellets obtained after high speed centrifugation were resuspended in 290 mM sucrose - 5 mM Imidazole buffer (pH = 7) and were aliquoted in cryovials (300 µl each) and kept in liquid nitrogen (better and safer long-term storage). Every month, a few cryovials are used to generate smaller aliquots of membranes (15 µl each) which were stored at –80°C for easy access. For experiments, aliquots were quickly thawed in water, kept on ice and used within 3–5 hours.
# Reconstitution of RyR2 in planar lipid bilayers, was performed as previously described. Briefly, planar lipid bilayers were formed on 80 to 100 µm-diameter circular holes in teflon septa, separating two 1.3 ml compartments. The trans compartment was filled with HEPES-Ca^2+ solution containing HEPES 250 mM and Ca(OH)2 53 mM, pH 7.4. The trans compartment was clamped at 0 mV using an Axopatch 200B patch-clamp amplifier (Axon Instruments, Foster City, CA). The cis compartment (ground) was filled with HEPES-Tris solution containing HEPES 250 mM and TrisOH 118 mM, pH 7.4. Bilayers of a 5∶4∶1 mixture of bovine brain phosphatidylethanolamine, phosphatidylserine and phosphatidylcholine (45–50 mg/ml in decane) were painted onto the holes of teflon septa from the cis side. Sarcoplasmic reticulum microsomes (5–15 µg) were then added to the cis solution followed by 500–1000 mM CsCl and 1 mM CaCl2 to promote vesicle fusion. After RyR currents (or Cl^− currents >100 pA at 0 mV) were observed, the cis chamber was perfused with HEPES-TRIS solution for 5 min at 4 ml/min. A mixture of BAPTA and dibromo-BAPTA was used to buffer free [Ca^2+] on the cytosolic surface of the channel ([Ca^2+]cyt). As previously done, RyR channels were identified by current amplitudes (∼3.5 pA at 0 mV), slope conductance (∼100 pS), reversal potential (∼−45 mV, trans - cis) and response to diagnostic ligands (e.g., ryanodine, Ca^2+, ATP, caffeine and Ruthenium Red). RyR channel currents are depicted as positive (upward deflections of the current) in figures and reflect cation flux from the trans (lumenal) to the cis (cytosolic) compartment. Membrane voltages always represent the difference between trans - cis compartments (in mV).
# Channel currents were first filtered through the Axopatch 200B low-pass Bessel filter at 2 kHz, digitized at 20 kHz with an analog to digital converter (Digidata 1320, Axon Instruments) and stored on DVD. Recordings were analyzed using pClamp9 software (Axon Instruments). Analysis with this program included open times, closed times and open probabilities (Po), which were determined by half-amplitude threshold analysis of single-channel recordings as done before.
# Recordings were digitally filtered at 500 Hz in order to estimate the probabilities of substates using two different methods:
# Frame by frame analysis (100 ms/frame) was performed using pClamp9 on each 4-min recording. […] The parameters (mean amplitude and duration) of each event were collected and averaged. The probability of substate occurrence, Psubstate, was estimated from the ratio: time spent in substate/total recording time. Pfull open was estimated as the fraction of time spent in the maximal current level (full opening).
# T1 sequence (A0A5G2R1W3 20-4900): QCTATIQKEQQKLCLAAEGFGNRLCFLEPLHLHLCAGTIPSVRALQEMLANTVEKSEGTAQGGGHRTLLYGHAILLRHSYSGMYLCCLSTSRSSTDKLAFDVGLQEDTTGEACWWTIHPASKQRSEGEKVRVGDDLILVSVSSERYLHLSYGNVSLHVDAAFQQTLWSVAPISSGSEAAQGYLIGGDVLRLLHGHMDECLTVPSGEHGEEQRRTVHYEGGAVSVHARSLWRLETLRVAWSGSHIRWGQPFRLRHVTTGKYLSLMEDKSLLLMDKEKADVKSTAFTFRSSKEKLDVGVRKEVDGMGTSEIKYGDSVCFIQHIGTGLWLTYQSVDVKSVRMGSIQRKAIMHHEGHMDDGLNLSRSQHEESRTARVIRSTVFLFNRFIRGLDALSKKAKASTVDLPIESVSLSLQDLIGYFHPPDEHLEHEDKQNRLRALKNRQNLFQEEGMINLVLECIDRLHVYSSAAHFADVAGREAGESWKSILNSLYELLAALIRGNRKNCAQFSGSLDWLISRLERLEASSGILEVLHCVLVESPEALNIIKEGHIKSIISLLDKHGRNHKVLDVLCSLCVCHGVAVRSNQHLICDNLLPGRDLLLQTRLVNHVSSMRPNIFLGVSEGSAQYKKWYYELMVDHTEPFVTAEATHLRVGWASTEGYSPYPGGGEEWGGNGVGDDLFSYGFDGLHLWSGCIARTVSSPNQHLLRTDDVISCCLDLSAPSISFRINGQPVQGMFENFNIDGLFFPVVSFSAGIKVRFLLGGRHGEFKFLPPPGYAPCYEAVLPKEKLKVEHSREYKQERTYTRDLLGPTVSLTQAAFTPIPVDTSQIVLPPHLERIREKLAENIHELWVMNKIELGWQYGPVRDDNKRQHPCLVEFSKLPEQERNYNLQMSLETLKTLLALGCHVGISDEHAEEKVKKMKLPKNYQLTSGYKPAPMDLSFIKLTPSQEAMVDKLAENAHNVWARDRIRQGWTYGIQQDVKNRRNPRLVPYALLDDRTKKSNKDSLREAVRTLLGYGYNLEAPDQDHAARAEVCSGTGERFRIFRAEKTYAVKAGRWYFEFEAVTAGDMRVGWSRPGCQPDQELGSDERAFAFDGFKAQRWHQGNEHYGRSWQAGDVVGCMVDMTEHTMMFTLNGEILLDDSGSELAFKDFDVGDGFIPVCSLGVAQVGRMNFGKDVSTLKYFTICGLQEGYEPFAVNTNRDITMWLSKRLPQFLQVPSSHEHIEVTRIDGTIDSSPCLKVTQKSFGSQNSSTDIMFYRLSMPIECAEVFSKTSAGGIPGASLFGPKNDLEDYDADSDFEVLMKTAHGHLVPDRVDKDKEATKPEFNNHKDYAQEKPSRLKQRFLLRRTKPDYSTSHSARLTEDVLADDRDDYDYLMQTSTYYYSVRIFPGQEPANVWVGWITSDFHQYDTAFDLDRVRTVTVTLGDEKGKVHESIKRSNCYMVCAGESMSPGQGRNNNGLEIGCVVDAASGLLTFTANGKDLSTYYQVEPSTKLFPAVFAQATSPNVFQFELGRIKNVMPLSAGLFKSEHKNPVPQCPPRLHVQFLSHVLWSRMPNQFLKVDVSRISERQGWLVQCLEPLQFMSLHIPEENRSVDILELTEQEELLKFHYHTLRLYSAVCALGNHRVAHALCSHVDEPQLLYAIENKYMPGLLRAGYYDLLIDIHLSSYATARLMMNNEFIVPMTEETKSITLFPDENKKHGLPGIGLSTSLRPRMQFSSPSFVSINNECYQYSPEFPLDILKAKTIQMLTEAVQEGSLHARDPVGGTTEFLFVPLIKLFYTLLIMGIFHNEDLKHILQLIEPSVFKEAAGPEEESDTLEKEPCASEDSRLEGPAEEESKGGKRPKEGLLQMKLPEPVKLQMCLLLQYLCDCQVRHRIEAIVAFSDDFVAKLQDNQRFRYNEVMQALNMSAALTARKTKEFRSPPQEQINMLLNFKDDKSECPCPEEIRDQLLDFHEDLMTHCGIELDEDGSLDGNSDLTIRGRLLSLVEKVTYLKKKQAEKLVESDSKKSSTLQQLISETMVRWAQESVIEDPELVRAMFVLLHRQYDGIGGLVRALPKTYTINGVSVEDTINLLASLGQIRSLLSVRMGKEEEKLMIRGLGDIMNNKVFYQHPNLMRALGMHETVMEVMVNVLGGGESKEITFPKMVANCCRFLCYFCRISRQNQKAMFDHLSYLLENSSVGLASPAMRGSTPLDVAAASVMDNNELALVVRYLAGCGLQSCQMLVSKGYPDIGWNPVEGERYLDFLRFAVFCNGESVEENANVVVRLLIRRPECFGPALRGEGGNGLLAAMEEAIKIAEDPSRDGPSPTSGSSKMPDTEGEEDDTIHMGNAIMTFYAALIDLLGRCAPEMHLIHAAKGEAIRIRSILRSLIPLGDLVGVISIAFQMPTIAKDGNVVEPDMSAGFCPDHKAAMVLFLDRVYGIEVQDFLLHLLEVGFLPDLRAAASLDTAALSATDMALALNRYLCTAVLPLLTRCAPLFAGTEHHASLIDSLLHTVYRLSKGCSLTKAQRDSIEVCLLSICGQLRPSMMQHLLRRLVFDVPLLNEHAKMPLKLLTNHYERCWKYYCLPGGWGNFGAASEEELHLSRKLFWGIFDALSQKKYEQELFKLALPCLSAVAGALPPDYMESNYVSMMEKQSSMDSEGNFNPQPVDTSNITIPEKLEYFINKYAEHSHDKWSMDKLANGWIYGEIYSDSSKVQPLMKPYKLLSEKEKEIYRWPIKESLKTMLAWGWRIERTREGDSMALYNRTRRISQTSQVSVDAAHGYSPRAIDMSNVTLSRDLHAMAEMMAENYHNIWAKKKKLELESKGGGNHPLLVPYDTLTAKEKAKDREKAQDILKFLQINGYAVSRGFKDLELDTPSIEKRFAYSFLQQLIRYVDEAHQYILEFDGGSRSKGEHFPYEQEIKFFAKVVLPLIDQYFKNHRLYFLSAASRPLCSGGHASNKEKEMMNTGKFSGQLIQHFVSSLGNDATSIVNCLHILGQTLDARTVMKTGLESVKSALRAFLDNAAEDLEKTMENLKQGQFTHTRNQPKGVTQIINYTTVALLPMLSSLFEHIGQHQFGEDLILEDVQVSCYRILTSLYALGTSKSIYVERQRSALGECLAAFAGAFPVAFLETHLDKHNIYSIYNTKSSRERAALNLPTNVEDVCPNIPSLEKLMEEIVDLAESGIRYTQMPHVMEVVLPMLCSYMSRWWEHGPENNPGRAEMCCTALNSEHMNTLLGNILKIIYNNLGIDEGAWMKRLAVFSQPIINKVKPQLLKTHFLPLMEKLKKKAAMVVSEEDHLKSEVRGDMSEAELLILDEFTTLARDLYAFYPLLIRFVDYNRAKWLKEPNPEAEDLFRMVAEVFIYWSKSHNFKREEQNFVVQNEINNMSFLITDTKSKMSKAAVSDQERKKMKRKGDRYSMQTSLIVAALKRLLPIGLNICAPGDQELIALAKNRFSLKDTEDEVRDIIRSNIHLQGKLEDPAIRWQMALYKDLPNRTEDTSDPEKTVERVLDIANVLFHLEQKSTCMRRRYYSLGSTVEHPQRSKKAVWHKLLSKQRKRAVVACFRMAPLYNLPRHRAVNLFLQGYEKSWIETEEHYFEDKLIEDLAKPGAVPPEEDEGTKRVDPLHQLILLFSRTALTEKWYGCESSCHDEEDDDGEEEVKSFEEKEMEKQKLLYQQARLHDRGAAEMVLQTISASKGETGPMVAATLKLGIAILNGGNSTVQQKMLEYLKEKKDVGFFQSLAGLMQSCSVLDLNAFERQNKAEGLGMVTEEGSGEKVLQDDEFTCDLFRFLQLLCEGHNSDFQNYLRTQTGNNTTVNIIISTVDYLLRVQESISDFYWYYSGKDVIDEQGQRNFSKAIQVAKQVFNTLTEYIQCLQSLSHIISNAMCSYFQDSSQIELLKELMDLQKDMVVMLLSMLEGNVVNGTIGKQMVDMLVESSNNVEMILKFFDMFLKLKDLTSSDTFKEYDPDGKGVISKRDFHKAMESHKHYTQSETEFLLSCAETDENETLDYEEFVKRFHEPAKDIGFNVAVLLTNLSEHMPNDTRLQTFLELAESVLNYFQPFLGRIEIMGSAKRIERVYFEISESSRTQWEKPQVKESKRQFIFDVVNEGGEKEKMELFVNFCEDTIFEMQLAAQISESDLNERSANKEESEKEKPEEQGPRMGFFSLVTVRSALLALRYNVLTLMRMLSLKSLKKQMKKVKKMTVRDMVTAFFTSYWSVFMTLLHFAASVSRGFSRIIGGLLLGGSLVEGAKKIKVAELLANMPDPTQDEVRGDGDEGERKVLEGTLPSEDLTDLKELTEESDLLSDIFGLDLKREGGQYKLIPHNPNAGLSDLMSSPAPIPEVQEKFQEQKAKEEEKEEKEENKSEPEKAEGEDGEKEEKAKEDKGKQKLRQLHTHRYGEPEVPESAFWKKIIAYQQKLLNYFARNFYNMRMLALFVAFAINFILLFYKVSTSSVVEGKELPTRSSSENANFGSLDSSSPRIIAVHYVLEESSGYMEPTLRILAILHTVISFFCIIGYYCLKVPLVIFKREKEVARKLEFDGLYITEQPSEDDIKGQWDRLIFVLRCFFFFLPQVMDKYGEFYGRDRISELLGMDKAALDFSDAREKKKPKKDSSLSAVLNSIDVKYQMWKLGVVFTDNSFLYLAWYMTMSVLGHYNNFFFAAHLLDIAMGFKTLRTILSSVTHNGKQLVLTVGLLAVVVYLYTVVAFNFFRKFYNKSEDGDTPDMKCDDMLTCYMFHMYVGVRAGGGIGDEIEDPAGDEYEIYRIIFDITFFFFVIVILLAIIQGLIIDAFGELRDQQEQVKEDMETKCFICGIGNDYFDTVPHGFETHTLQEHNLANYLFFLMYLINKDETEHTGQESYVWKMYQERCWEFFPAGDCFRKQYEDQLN
Compound,dwell time of ryanodol-induced events (10 µM ryanodol + 1 µg/ml protamine + 250 µg/ml heparin) [s],dwell time of ryanodol-induced events (10 µM ryanodol + 1 µg/ml protamine),dwell time of ryanodol-induced events (10 µM ryanodol alone) [s],substate current level as % of the current through the full open channel (Vm = 0 mV) [%],substate current level as % of the full open current,slope conductance of the induced substate (I-V curve) [pS],"effect of IpTxA on RyR2 behavior when protamine is present (50 nM IpTxA + 1 µg/ml protamine, fully activated RyR2)","open probability (Po) after addition of heparin (250 µg/ml heparin after 1 µg/ml protamine, 100 nM cytosolic Ca2+, Vm = 20 mV, n = 5)","effect of subsequent heparin addition on protamine-modified RyR2 (250 µg/ml heparin after 20 µg/ml protamine, Vm = 0 mV)"
"CC(C)[C@@]1(O)[C@@H](O)[C@@]2(O)[C@@]3(C)C[C@]4(O)O[C@@]5([C@H](O)[C@@H](C)CC[C@]35O)[C@@]2(O)[C@]14C [ryanodol, Ryanodol]",3.4 ± 0.5,11 ± 3 s and 11.3 ± 2.5 s,3.7 ± 0.7,~45,same proportions,56±2,–,–,–
Imperatoxin A [IpTxA],–,–,–,~33,same proportions,43±3,little or no effect,–,–
heparin,–,–,–,–,–,–,–,0.009±0.006,reversed the effect of protamine
